# Data published in EP4722228A1, “NEW COMPOUND TARGETING MUSK AND USE THEREOF” (The University of Tokyo, priority 2023, dated 2024).
# Where two headings read alike, the source gives them in different places. Numbered stars: 1 amine (or outer) side, 2 acyl side, 3 side chain; on linkers, the order of the positions; unused ones are H or OH. Bridge positions count the residues as written; N and C are the ends. Square brackets hold non-standard residues; d marks the D form. Peptide text beside a SMILES is read from it. I, II: the chains in the order shown. X1 = O=C(CCN1C(=O)CC([*:1])C1=O)NCCOCCOCCOCCOCCOCCOCCOCCOCCOCCOCCOCCNC(=O)CCN1C(=O)CC([*:2])C1=O
# Key:
# [1] = system: C2C12 myotubes (Agrin-induced AChR clusters); assay: Agrin-induced AChR clusters in myotubes with tyrosine kinase inhibitors; type: cell-based, mouse; conditions: 10 pM recombinant rat agrin, inhibitor (3 nM) added simultaneously, 20 hours; for MuSK inhibitory effects: presumed
# Source text: The mouse myoblast-derived cell line C2C12 (CRL-1772) was purchased from the American Type Culture Collection and used. For subculture, Dulbecco's Modified Eagle Medium (DMEM, high glucose, GlutaMAX supplement, pyruvate; GIBCO) supplemented with 20% fetal bovine serum (FBS; GIBCO) was used. For passage, after the culture medium was removed by suction, adherent cells were washed with phosphate buffered saline (PBS(-)), and HBSS (GIBCO) containing no Mg^2+ and Ca^2+ and containing 0.25% trypsin and 1 mM ethylenediaminetetraacetic acid was added, and the mixture was reacted in a CO2 incubator (37°C, 5% CO2) for 5 minutes. The detached cells were collected and then centrifuged at 1000 rpm at 4°C for 5 minutes (Sorvall X4R Pro, Thermo Fisher Scientific Inc.). After the supernatant was removed by suction, the cells were suspended in fresh culture medium, and 100 µL was seeded into a 96-well plate (BioCoat Collagen I 96-well Black/Clear plate, Corning Inc.) and cultured in a CO2 incubator (37°C, 5% CO2) until reaching confluence, typically within 72 hours. Subsequently, the culture medium was removed and the first medium change was performed with DMEM containing 2% horse serum (GIBCO) for induction of myotube cell differentiation.
# A differentiation medium supplemented with an appropriate amount of the homodimer of the cyclic peptide MuSK7 (MuSK7 PEG11 dimer) was prepared in advance in a 96-well plate (Nunclon Δ Surface, 167008, Nunc), and used at 100 µL/well at the time of the second medium change in the process of inducing differentiation into myotubes. 20 hours after addition of the homodimer of the cyclic peptide MuSK7, the medium was removed, the cells were washed with PBS(-), and then fixed at room temperature for 15 minutes with PBS(-) containing 4% formaldehyde. After washing several times with 1% BSA-PBS(-), fluorescently labeled α-bungarotoxin (α-Btx, Alexa Fluor 488 conjugate; Invitrogen) was added to 1% BSA-PBS(-) at a final concentration of 100 nM, and after adding this to the wells, the mixture was allowed to stand at room temperature under a light-shielded condition for 30 minutes. After washing the cells several times with 1% BSA-PBS(-), 100 µL of PBS(-) was added to each well, and fluorescence observation was performed using a fluorescence imaging device. For observation of fluorescently labeled AChR clusters, an EVOS M7000 imaging system (Thermo Fisher Scientific Inc.) was used. During fluorescence image observation, a 10× objective lens was used, and tiff images of an area equivalent to 1 mm^2 were obtained. […] The average number of AChR clusters counted from the three tiff images derived from the same well was calculated and drawn on a graph.
# MuSK inhibitor candidates were searched in the KinaseNET database (http://www.kinasenet.ca/) published as an open resource by Kinexus Bioinformatics Corporation (Canada), and three tyrosine kinase inhibitors (AST-487, Foretinib, and Sorafenib) were identified. Next, groups were prepared in which 10 pM recombinant rat agrin protein (550-AG, R&D Systems) derived from C2C12 myotubes was added alone, or in which each tyrosine kinase inhibitor (3 nM) was added simultaneously, and detection and observation of Agrin-induced AChR clusters were performed 20 hours after compound addition (five types, Crizotinib, Linifanib, AST-1306, Dovitinib, and BMS-754807, were used as non-MuSK inhibitory tyrosine kinase inhibitors).
# human MuSK = molecular target: T1, human MuSK (Homo sapiens, UniProt O15146); assay: SPR binding activity test to human MuSK (Biacore)
# T1 construct: DNA corresponding to the extracellular portion (amino acids 1-493) was amplified by a PCR method; made in house; host or cells: Expi293F cells
# T1 sequence (O15146 24-493): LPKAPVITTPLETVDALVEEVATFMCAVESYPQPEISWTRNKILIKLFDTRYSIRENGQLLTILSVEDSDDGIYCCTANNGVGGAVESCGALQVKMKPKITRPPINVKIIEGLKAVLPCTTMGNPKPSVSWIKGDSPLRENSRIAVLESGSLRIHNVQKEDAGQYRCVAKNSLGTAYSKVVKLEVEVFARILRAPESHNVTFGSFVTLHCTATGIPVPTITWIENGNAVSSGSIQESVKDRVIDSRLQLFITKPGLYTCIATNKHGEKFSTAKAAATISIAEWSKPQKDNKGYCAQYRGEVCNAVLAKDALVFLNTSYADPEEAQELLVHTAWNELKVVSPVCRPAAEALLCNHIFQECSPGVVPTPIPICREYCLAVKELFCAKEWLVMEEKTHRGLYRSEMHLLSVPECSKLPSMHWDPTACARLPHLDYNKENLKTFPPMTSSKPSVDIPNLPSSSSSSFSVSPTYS
# Experimental: The human MuSK protein (extracellular portion) was prepared as a recombinant protein as follows. Using a Flexi clone (FXC31275, Promega Corporation) encoding Human MuSK isoform 1 precursor (NCBI Reference Sequence: NP_005583.1) as a template, DNA corresponding to the extracellular portion (amino acids 1-493) was amplified by a PCR method. XhoI and EcoRI restriction enzyme recognition sequences were added to both the 5' and 3' ends of the amplified DNA sequence, and these were used for insertion into the multiple cloning site of a pCAG-Neo hIgG1-Fc plasmid (Fujifilm Wako Pure Chemical Corporation). This plasmid (pCAG-Neo hMuSK-Fc) enables expression of a chimeric protein of the secretory human MuSK extracellular portion and human IgG1 Fc (hMuSK-Fc; molecular weight of approximately 200 kDa) in animal cells. In practice, ExpiFectamine 293 reagent (Invitrogen) was used to transfect the pCAG-Neo hMuSK-Fc plasmid into Expi293F cells (Invitrogen), and shaking culture was carried out (for 6 days) in an incubator containing 8% CO2. Next, the culture supernatant was collected, centrifuged, and sterilized by filtration through a 0.22 µm filter. The obtained culture supernatant was subjected to Protein G purification, and finally, a purified hMuSK-Fc sample with 99.96% purity (AKTA-FPLC analysis) was obtained.
# The strength of binding between MuSK and the cyclic peptides was evaluated by quantitatively measuring the binding kinetics (binding affinity (dissociation constant) KD) of the cyclic peptides to MuSK immobilized on a sensor chip via an Fc tag, using surface plasmon resonance (SPR).
# According to the standard immobilization protocol provided by the manufacturer, Fc-tagged human/mouse/rat MuSK was immobilized on a Protein G chip or a Protein A chip (Cytiva). A running buffer for the monomer/dimer peptides contained 0.010 M phosphate, 0.14 M NaCl, 0.0027 M KCl, 0.05% (v/v) Tween 20, and 0.1% (v/v) DMSO. A running buffer for the monomer/dimer U-bodies contained 0.010 M phosphate, 0.14 M NaCl, 0.0027 M KCl, and 0.05% (v/v) Tween 20. A series of concentrations of each monomer peptide, dimer peptide, monomer U-body, and dimer U-body was injected as analytes. A 1:1 binding fitting analysis was applied using Biacore evaluation software, and ka, kd, and KD values were determined.
# Fc-tagged human MuSK was prepared according to the procedure described in Example 1(1). In addition, Fc-tagged mouse MuSK was used by expressing a nucleotide sequence encoding the Fc-tagged mouse MuSK extracellular domain (SEQ ID NO: 34). In addition, Fc-tagged rat MuSK was used as a chimeric protein of rat MuSK and an Fc protein, namely, Recombinant Rat MuSK Fc Chimera Protein (catalog number: 9847-MK-050, R&D Systems).
# The affinity of the U-bodies and their complexes obtained as described above for MuSK of human, rat, and mouse was evaluated (binding activity test). The test was carried out according to the procedure described in Example 1(3). However, for the complexes of U-bodies, surface plasmon resonance (SPR) analysis was carried out using a Biacore 8K (Cytiva).
compound,measurement,setting,value
C[C@@]1(C(=O)Nc2ccc(F)nc2)CCCN1c1nc(Nc2cc(C3CC3)n[nH]2)c2cccn2n1 [BMS-754807],number of AChR clusters,[1],comparable to that in the negative control group (DMSO alone)
C=CC(=O)Nc1ccc2ncnc(Nc3ccc(OCc4cccc(F)c4)c(Cl)c3)c2c1 [AST-1306],number of AChR clusters,[1],comparable to that in the negative control group (DMSO alone)
CNC(=O)c1cc(Oc2ccc(NC(=O)Nc3ccc(Cl)c(C(F)(F)F)c3)cc2)ccn1 [Sorafenib],MuSK inhibitory effects,[1],weaker MuSK inhibitory effects compared with AST-487
"CC(C)C[C@@H]1NC(=O)[C@H](CC(C)C)NC(=O)[C@H](CO)NC(=O)[C@H](C(C)C)NC(=O)[C@H](C(C)C)NC(=O)[C@H](CC(N)=O)NC(=O)[C@H]([C@@H](C)O)NC(=O)[C@@H]2CCCN2C(=O)[C@H](Cc2ccccc2)NC(=O)[C@@H](Cc2ccc(O)cc2)NC(=O)CSC[C@@H](C(=O)N[C@@H](CSC2CC(=O)N(CCC(=O)NCCOCCOCCOCCOCCOCCOCCOCCOCCOCCOCCOCCNC(=O)CCN3C(=O)CC(SC[C@H](NC(=O)[C@@H]4CSCC(=O)N[C@H](Cc5ccc(O)cc5)C(=O)N[C@@H](Cc5ccccc5)C(=O)N5CCC[C@H]5C(=O)N[C@@H]([C@@H](C)O)C(=O)N[C@@H](CC(N)=O)C(=O)N[C@@H](C(C)C)C(=O)N[C@@H](C(C)C)C(=O)N[C@@H](CO)C(=O)N[C@@H](CC(C)C)C(=O)N[C@@H](CC(C)C)C(=O)N[C@@H](CCCCN)C(=O)N[C@@H](CO)C(=O)N4)C(N)=O)C3=O)C2=O)C(N)=O)NC(=O)[C@H](CO)NC(=O)[C@H](CCCCN)NC1=O (some centres unmarked) [MuSK4 PEG11 dimer] (I: {CH2CO}-[dY]FPTNVVSLLKSCC-NH2 / II: {CH2CO}-[dY]FPTNVVSLLKSCC-NH2; linker I:14-II:14 via X1; thioether I:N-I:13, II:N-II:13)",koff,"human MuSK; human MuSK, peptide homodimers",0.0056 s⁻¹
same,kon,"human MuSK; human MuSK, peptide homodimers",810000 M⁻¹ s⁻¹
same,Kd,"human MuSK; human MuSK, peptide homodimers, read-out: Kd",6.9 nM
CC(=O)N[C@H](Cc1ccc(O)cc1)C(=O)N[C@@H](CC(C)C)C(=O)N1CCC[C@H]1C(=O)N[C@@H](CCC(=O)O)C(=O)N[C@@H](Cc1ccccc1)C(=O)N[C@@H](CO)C(=O)N[C@@H](Cc1c[nH]c2ccccc12)C(=O)N1CCC[C@H]1C(=O)N[C@@H](CCC(=O)O)C(=O)N[C@@H](CO)C(=O)N[C@@H](Cc1ccccc1)C(=O)N[C@H](C(=O)N[C@@H](CC(C)C)C(=O)N[C@@H](Cc1ccccc1)C(=O)N[C@@H](CC(C)C)C(=O)N[C@@H](CCCNC(=N)N)C(=O)N[C@@H](CCC(N)=O)C(=O)N[C@@H](CCCNC(=N)N)C(=O)N[C@@H](CCC(N)=O)C(=O)N[C@@H](CCCNC(=N)N)C(=O)N[C@@H](CCC(N)=O)C(=O)N[C@@H](CC(C)C)C(=O)NCC(=O)N[C@@H](CCCNC(=N)N)C(=O)NCC(=O)N[C@@H](C)C(=O)N[C@@H](CCC(=O)O)C(N)=O)C(C)C [MuSK1Ac] (Ac-[dY]LPEFSWPESFVLFLRQRQRQLGRGAE-NH2),Kd,"human MuSK; 25°C, Fc-tagged human MuSK immobilized, monomer peptides, read-out: Binding activity (KD)",1.6 nM
I: Ac-C[dY]LPEFSWPESFVLFLRQRQRQLGRGAE-NH2 / II: Ac-C[dY]LPEFSWPESFVLFLRQRQRQLGRGAE-NH2 (linker I:1-II:1 via X1) [MuSK1Ac PEG11 dimer],koff,"human MuSK; human MuSK, peptide homodimers",0.001 s⁻¹
same,kon,"human MuSK; human MuSK, peptide homodimers",660000 M⁻¹ s⁻¹
COc1cc2c(Oc3ccc(NC(=O)C4(C(=O)Nc5ccc(F)cc5)CC4)cc3F)ccnc2cc1OCCCN1CCOCC1 [Foretinib],MuSK inhibitory effects,[1],weaker MuSK inhibitory effects compared with AST-487
C[C@@H](Oc1cc(-c2cnn(C3CCNCC3)c2)cnc1N)c1c(Cl)ccc(F)c1Cl [Crizotinib],number of AChR clusters,[1],comparable to that in the negative control group (DMSO alone)
